# Reference: PubChem BioAssay AID463199 (Broad Institute, 2010)
# The source made the active and inactive calls.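 Rule for the calls: active = AC50, the dose giving half-maximal effect, exceeds a fixed cutoff for a compound that rescues yeast growth under heat; inactive = the rest, inconclusive results apart.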
# Test system: S. cerevisiae Burl-1 ts mutant growth, BacTiter-Glo, 38.5C 24 h
# Experiment: growth induction of Burl-1 ts yeast mutant, dose response, counter-screen for SUMOylation pathway inhibitor project, whole organism, S. cerevisiae, luminescence (AID 463199)
row,Structure (SMILES),AC50
1,CC(C)C(NC(=S)Nc1ccccc1)C(=O)O (stereo not given),> 42 µM (inactive)
2,CN(C)C(/C=C/Nc1cccc(Br)c1)=C(C#N)C#N,> 42 µM (inactive)
3,COc1ccc(C(=O)Nc2ccccc2C(=O)NCCN2CCOCC2)cc1OC,> 42 µM (inactive)
4,CCCOc1ccc(N2C(=O)CC(N3CCC(C(=O)OCC)CC3)C2=O)cc1 (stereo not given),> 42 µM (inactive)
5,OCC1(Cc2cccc(Cl)c2)CCCN(Cc2ccc(F)c(F)c2)C1 (stereo not given),> 42 µM (inactive)
6,CC1(C(=O)Nc2cccc(-n3cnnn3)c2)Cc2ccccc2C(=O)O1 (stereo not given),> 42 µM (inactive)
7,Cc1cc(N2CCN(C)CC2)nc2ccc(NC(=S)N3CCC4(CC3)OCCO4)cc12,> 42 µM (inactive)
8,CCCOc1ccccc1C1NC(=O)NC(C)=C1C(=O)OCc1ccccc1 (stereo not given),> 42 µM (inactive)
9,CCOc1ccc(NS(=O)(=O)c2ccc(C(=O)NCc3cccnc3)cc2)cc1,> 42 µM (inactive)
10,O=C(c1ccc(F)cc1)C(CN1CCOCC1)c1ccccc1 (stereo not given),> 42 µM (inactive)
11,COc1ccc2c(c1)[C@H]1[C@H](CO2)[C@H](c2ccccc2)[C@]2(C)C(=O)Nc3cc(F)ccc3C(=O)N12,> 42 µM (inactive)
12,O=C1COc2ccc(C(=O)COC(=O)c3ncc(Cl)c(Cl)c3Cl)cc2N1,> 42 µM (inactive)
13,Nn1c(SCc2cc([N+](=O)[O-])cc3c2OCOC3)nnc1-c1ccccn1,> 42 µM (inactive)
14,COC(=O)c1cc2c(s1)-c1ccc(OC)cc1CC2,> 42 µM (inactive)
15,COc1ccc(CCN2CC(C(=O)N(C)CC(=O)Nc3cccc(F)c3)CC2=O)cc1OC (stereo not given),> 42 µM (inactive)
16,C=CCn1c(=N)c(C(=O)NCCCOC)cc2c(=O)n3ccccc3nc21,> 42 µM (inactive)
17,CCCCc1nnc(NC(=O)CSc2nc(O)c(-c3ccccc3)c(=O)[nH]2)s1,> 42 µM (inactive)
18,COC(=O)c1ccccc1N(C)S(C)(=O)=O,> 42 µM (inactive)
19,N[C@@H](Cc1ccc(O)c(I)c1)C(=O)O,> 42 µM (inactive)
20,O=[N+]([O-])c1ccccc1CN1CC=C(c2ccc(F)cc2)CC1,> 42 µM (inactive)
21,O=Cc1ccc(Oc2cccc(C(F)(F)F)c2)nc1,> 42 µM (inactive)
22,CCN1C(=S)N[C@@H](c2cccs2)C(C(=O)OC)=C1C,> 42 µM (inactive)
23,COc1ccccc1CNC(=O)C(C)Sc1ccc(C)cc1 (stereo not given),> 42 µM (inactive)
24,O=S(=O)(Nn1c(O)c(C=C2N=c3ccccc3=N2)sc1=S)c1ccccc1,> 42 µM (inactive)
25,O=C(C[n+]1ccc(C(=O)N/N=C/c2ccc(Cl)cc2Cl)cc1)c1ccccc1,> 42 µM (inactive)

row,Structure (SMILES),AC50
1,CCOC(=O)CSc1cc(C)nc2ccc(OC)cc12,> 42 µM (inactive)
2,COCCNC(=O)C(=O)N/N=C(\C)CC(=O)Nc1cccc(C(F)(F)F)c1,> 42 µM (inactive)
3,CC1CC(c2ccccc2)NS(=O)(=O)O1 (stereo not given),> 42 µM (inactive)
4,CN(C)S(=O)(=O)N1CCc2ccccc2C1,> 42 µM (inactive)
5,Cc1ccc(-c2csc(NC(=O)CSc3nc(C)cs3)n2)cc1,> 42 µM (inactive)
6,Cc1ccc(C(=O)N/C(=C/c2ccccc2)C(=O)NCC2CCCO2)cc1 (stereo not given),> 21 µM (inactive)
7,COc1cc(C(=O)N/N=C/c2ccccn2)cc(OC)c1OC,> 42 µM (inactive)
8,Cc1cc(C)c(OCC(=O)N/N=C/c2ccco2)c(C)c1,> 42 µM (inactive)
9,COc1cccc(CN2CCN(C(=O)c3cccc4ccccc34)CC2)c1OC,> 42 µM (inactive)
10,CC[n+]1c(/C=C(\C)SC)sc2ccccc21,> 42 µM (inactive)
11,COc1ccccc1N1CCN(C(=O)c2ccc(N3CCCCS3(=O)=O)cc2)CC1,> 42 µM (inactive)
12,CC(SC#N)C(=O)C12CC3CC(CC(C3)C1)C2 (stereo not given),> 42 µM (inactive)
13,COc1cc(CNCCN2CCOCC2)ccc1OCc1ccccc1Cl,> 42 µM (inactive)
14,CN=C(Nc1cccnc1)c1ccccc1,> 42 µM (inactive)
15,O=C(Nc1nnc(COc2ccc(F)cc2)s1)c1cccs1,> 42 µM (inactive)
16,COc1cc(C(=O)Oc2cccnc2)cc(OC)c1OC,> 42 µM (inactive)
17,CC(=O)NCc1c(Cl)cccc1-n1cccc1,> 42 µM (inactive)
18,CCN1C(=O)c2cccc3c(S(=O)(=O)Nc4ccc(OC)cc4OC)ccc1c23,> 42 µM (inactive)
19,CCOC(=O)CNC(=O)c1cccnc1,> 42 µM (inactive)
20,CC(C)(C)NC(=O)CN(C(=O)CCC(=O)Nc1nccs1)c1ccc2c(c1)OCCO2,> 42 µM (inactive)
21,CS(=O)(=O)N(CC(=O)Nc1ccccc1C(=O)N1CCCC1)c1ccc2c(c1)OCO2,> 42 µM (inactive)
22,Cn1c(=O)[nH]c(=O)c2c1nc(Sc1ccccc1)n2CCc1ccccc1,> 42 µM (inactive)
23,COc1ccc(C(=O)O/N=C(\N)c2ccccc2)cc1OC,> 42 µM (inactive)
24,Cc1ccc2cccc(OCc3nnc(SCC(=O)O)n3C)c2n1,> 42 µM (inactive)
25,O=CNCCCc1nc2ccccc2n1CCc1ccccc1,> 42 µM (inactive)
